Measurements taken from patent US4314063A, “1-Ethyl-1,4,5,6-tetrahydro-6-(2-naphthyl)-4-oxo-nicotinic acid and lower alkyl esters thereof” (Hoffmann-La Roche Inc., priority 1981, dated 1982).
Counter-ions that a name gives are not always drawn.

Legend:
Type in all cases: in vivo
[1] = LD50 (mouse), acute toxicity; conditions: in vivo, mouse
[2] = tested on: rats; experiment: Turning rat test (rotation in rats with unilateral 6-OHDA lesion of the medial forebrain bundle); conditions: for minimal effective dose: Rattus norvegicus, ip, 1 h, i.p., active = more than 100 turns/hour, 5 rats per dose, read-out: Turning rat test minimum active dosage
Method: Female rats weighing 150 g are anaesthetised with pentobarbital (50 mg kg^-1 i.p.) and fixed in a stereotaxic apparatus (David Kopf). A unilateral (right side) injection into the MFB (medial forebrain bundle) of 6-OHDA (6-hydroxy-dopamine), 3 μg as base, dissolved in 4 μl of Ringer solution containing 0.02% ascorbic acid, is carried out through a stainless-steel cannula (diameter 0.3 mm) connected to a microsyringe. The liquid is injected at a speed of 1 μl min^-1 by means of a high precision infusion pump. In order to reach the MFB (medial forebrain bundle), the following coordinates are used: A=+3.8 mm, L (right)=0.9 mm, V=-3 mm according to the Atlas of Konig and Klippel.
After 3 weeks recovery period, the operated rats are injected with apomorphine, 1 mg kg^1- i.p. Those animals showing a regular contralateral (i.e., away from the lesioned side) turning, recorded automatically during 1 hour in a rotometer, are selected for further experiments. At least one week is allowed between each injection of screening compounds.
Drugs which induce rotation are dopamine receptor agonists. If the turning is contralateral (i.e., away from the lesioned side) the drugs are classified as "apomorphine-like", which indicates a direct dopamine-receptor stimulation (postsynaptic). The denervated striatum is more sensitive to dopamine receptor agonistes than the intact one. Agonists therefore affect the denervated striatum more than the intact one. This inbalance results in contralateral turning (rotation).
If the rotation is ipsilateral (i.e., towards the lesioned side), the drugs are classified as "amphetamine-like", which means that they release and/or block the reuptake of dopamine (presynaptic) from nerve terminals on the intact side, whereas they have little if any effect on the striatum with denervated dopamine neurons. The result of this inbalance is an ipsilateral turning.
The total number of ipsilateral or contralateral turns (full rotation around the vertical axes of the body) made by each rat, is automatically recorded over the time (usually 1 hour). 5 rats are injected for each dose and the mean of total turns per hour is determined.
A compound is said active, if it produces more than 100 turns/hour. If a drug induces rotation, but less than 100 turns/hour, it is indicated as slightly active. […] The results are expressed as: […]
Minimal effective dose--if the drug is active

[3] = tested on: mouse; experiment: LD50 (mouse), acute toxicity; conditions: in words

SMILES	LD50 ([1]; iv)	LD50 ([1]; po)	LD50 ([1]; sc)	minimal effective dose [2]	LD50 compared with d-amphetamine and d-methamphetamine ([3]; versus d-amphetamine and d-methamphetamine)	LD50 compared with nomifensin ([3]; versus nomifensin)	strength of action compared with d-amphetamine and d-methamphetamine ([2]; in words, versus d-amphetamine and d-methamphetamine, see Table I)	action compared with nomifensin ([2]; in words, versus nomifensin, see Table I)
C[C@H](N)Cc1ccccc1 [d-Amphetamine . 1/2 H2 SO4]	14 mg/kg	35 mg/kg	22 mg/kg	1 mg/kg	–	–	–	–
CCn1cc(C(=O)O)c(=O)cc1-c1ccc2ccccc2c1 [1-ethyl-1,4-dihydro-6-(2-naphthyl)-4-oxonicotinic acid]	–	170 mg/kg	–	1 mg/kg	substantially lower LD50	about the same LD50	about the same strength of action	substantially superior to nomifensin
CN[C@@H](C)Cc1ccccc1 [d-Methamphetamine . HCl]	9.5 mg/kg	–	14 mg/kg	1 mg/kg	–	–	–	–
CN1Cc2c(N)cccc2C(c2ccccc2)C1 (stereo not drawn) [Nomifensin, 8-amino-1,2,3,4-tetrahydro-2-methyl-4-phenylisoquinoline]	–	300 to 600 mg/kg	–	3 mg/kg	–	–	–	–
